The numbers were not newly measured in US6897334B2 (Board of Regents of the University of Nebraska, priority 2003, dated 2005), which cites them from elsewhere.

SMILES strings stand for the structures.

The conditions of this data set: background statement.

Consider `CCOC(=O)CN(C)C(=N)N` [creatine ethyl ester, Creatine ethyl ester], for which the “solubility in an aqueous solution” value is listed as “over 200 mg/ml”.
